Experiments:
Format in all cases: functional
[1] = Anti-glycation activity assessed as inhibition of AGE formation at 150 uM incubated for 3 days in presence of BSA and MGO by fluorescence based assay relative to control; set-up: scale not given: the % may be the effect or the level left
[2] = tested on: Zone of skin; assay: Anti-aging activity in reconstructed human skin assessed as dermis contraction at 150 uM by hematoxylin and eosin staining-based microscopic analysis (reference value: 57.4%)
[3] = Anti-glycation activity assessed as inhibition of AGE formation at 10 mM incubated for 3 days in presence of BSA and MGO by fluorescence based assay relative to control; set-up: scale not given: the % may be the effect or the level left
[4] = tested on: Zone of skin; assay: Anti-aging activity in reconstructed human skin assessed as dermis contraction at 10 mM by hematoxylin and eosin staining-based microscopic analysis (reference value: 57.4%)

SMILES: C[N+]1(C)CCc2cc(O)c(O)cc2C1Cc1ccc(O)cc1 (stereo not drawn)
- Activity [1]: 61.5 to 63%
- Activity [2]: 8.7%

SMILES: CN1CCc2cc(O)c(O)cc2C1Cc1ccc(O)cc1 (stereo not drawn)
- Activity [1]: 98.2%
- Activity [2]: 4.2%

SMILES: COc1cc2c(cc1O)C(Cc1ccc(O)cc1)[N+](C)(C)CC2 (stereo not drawn)
- Activity [1]: 26.1%

SMILES: C[N+]1(C)C=Cc2cc(O)c(O)cc2C1Cc1ccc(O)cc1 (stereo not drawn)
- Activity [1]: 83.3%

SMILES: N=C(N)NN [PIMAGEDINE]
- Activity [3]: 92.2%
- Activity [4]: 49.7%
